Data taken from US20070066561A1, “Drug delivery and targeting with vitamin B12 conjugates” (New York University, priority 2002, published 2007).
Converted amounts (≈) assume the structure as drawn.

Key:
[1] = tested on: K562 Erythroleukemia; test: Cytotoxicity against human cell lines grown in culture, MTT assay; type: cell-based; conditions: 72 hr continuous incubation, 5% human serum, relative cell growth by MTT, means of duplicate experiments
From the text: (§1) The data below are means of duplicate experiments with similar results.

[2] = tested on: KARPAS-291 Lymphoma; test: as above; type: cell-based; conditions: 72 hr continuous incubation, 5% human serum, relative cell growth by MTT, means of duplicate experiments
From the text: as §1

[3] = tested on: HL60 Promyelocytic leukemia; test: as above; type: cell-based; conditions: 72 hr continuous incubation, 5% human serum, relative cell growth by MTT, means of duplicate experiments
From the text: as §1

[4] = Bioactivity of cobalamin conjugates (test not described)
[5] = target: T1, transcobalamin II (TCII) (Homo sapiens, UniProt P20062); test: Binding to transcobalamin II; conditions: compared with control vitamin B12; listed as p-iodohippuric acid TFP ester conjugated to the e-cyanocobalamin via the 4,7,10-
T1 sequence (P20062 19-427): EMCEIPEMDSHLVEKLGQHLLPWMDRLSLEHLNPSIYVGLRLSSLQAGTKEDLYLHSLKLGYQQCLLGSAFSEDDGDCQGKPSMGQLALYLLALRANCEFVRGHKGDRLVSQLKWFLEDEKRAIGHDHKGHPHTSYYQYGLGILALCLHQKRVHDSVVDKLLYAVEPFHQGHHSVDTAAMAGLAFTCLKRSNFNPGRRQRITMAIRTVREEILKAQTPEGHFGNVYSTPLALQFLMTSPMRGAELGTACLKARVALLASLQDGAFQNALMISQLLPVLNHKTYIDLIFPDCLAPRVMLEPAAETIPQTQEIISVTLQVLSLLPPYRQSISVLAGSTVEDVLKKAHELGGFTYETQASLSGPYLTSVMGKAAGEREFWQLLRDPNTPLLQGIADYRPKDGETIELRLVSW
Experimental: This conjugate may be used as a standard for future B12 derivatives because of its higher rate of binding to TCII, which is required for efficient delivery to the appropriate receptors.
The p-iodohippuric acid TFP ester conjugated to the e-cyanocobalamin via the 4,7,10-trioxa-1,13-tridecanediamine linker was assessed for binding to transcobalamin II (TCII).

[6] = cited from earlier work
[7] = between pH about 4 and 7; cited from earlier work

Molecule: CC(=O)O[C@H]1C(=O)[C@@]2(C)[C@H]([C@H](OC(=O)c3ccccc3)[C@]3(O)C[C@H](OC(=O)[C@H](O)[C@@H](NC(=O)c4ccccc4)c4ccccc4)C(C)=C1C3(C)C)[C@]1(OC(C)=O)CO[C@@H]1C[C@@H]2O [Taxol, Paclitaxel]
- IC50 ([1]; K562): 4 ng/mL (≈ 4.68 nM)
- IC50 [2]: 2 ng/mL (≈ 2.34 nM)
- IC50 ([3]; HL-60): 0.15 ng/mL (≈ 0.176 nM)

Molecule: B12-P-Hippuric acid-4,7,10-trioxa-1,13-tridecanediamine e-cyanocobalamin monocarboxylic acid conjugate [B12 P-Hippuric acid]
- Bioactivity [4]: bioactive
- Binding to TCII [5]: substantially as great as for control vitamin B12

Molecule: cyanocobalamin [B12]
- Cytotoxicity, K562 Erythroleukemia [1]: 250 ng/mL
- Cytotoxicity, KARPAS-291 Lymphoma [2]: 294 ng/mL
- Cytotoxicity, HL60 Promyelocytic leukemia [3]: 152 ng/mL
- Solubility in acetone, ether, and chloroform [6]: insoluble
- Solubility in lower alcohols and phenol [6]: moderately soluble
- Solubility in water ([6]; room temperature): 12 mg/mL
- Stability in aqueous solutions [7]: quite stable

Molecule: p-iodohippuryl-1,12-diaminododecane conjugated to cyanocobalamin-e-carboxylate
- Bioactivity [4]: most bioactive conjugate studied
